Source: patent publication US20240376094A2, “SELECTIVE BCL-XL PROTAC COMPOUNDS AND METHODS OF USE” (Les Laboratoires Servier, priority 2021, published 2024)

Key:
Assay type in all cases: cell-based
MOLT-4 cells [1] = test: MOLT-4 cell viability, CTG assay; conditions: Homo sapiens, MOLT-4, 48 h
Method in brief: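 Cells grown in RPMI 1640 with 10% FBS at 37° C, 5% CO2, then exposed to compounds for 48 h (11-point 5-fold dilution, triplicates). ATP measured by CellTiter-Glo luminescence; IC50 from four-parameter fit versus control, mean of ≥2 independent experiments.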

MOLT-4 cells [2] = test: MOLT-4 cell viability, MTT assay; conditions: Homo sapiens, MOLT-4, 48 h
Method in brief: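 MOLT-4 cells in RPMI 1640 with 10% FBS were exposed to compounds for 48 h at 9 concentrations (3.16-fold dilutions, triplicates). After 4 h with MTT and overnight SDS/HCl solubilisation, absorbance was read at 540 nm. IC50 came from four-parameter fits versus control, as the mean of ≥2 independent experiments.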

endogenous BCL-xL = target: T1, endogenous BCL-xL (Homo sapiens, UniProt Q07817); test: Degradation of endogenous BCL-xL in COR-L105 (ProteinSimple Jess); conditions: COR-L105, 24 h, COR-L105, dose 300 nM, read-out: % BCL-xL vs. Untreated, COR-L105
T1 construct: endogenous in cells; host or cells: COR-L105 (ECACC No. 92031918); NCI-H1650 (ATCC No. CRL-5883)
T1 sequence (Q07817 whole entry): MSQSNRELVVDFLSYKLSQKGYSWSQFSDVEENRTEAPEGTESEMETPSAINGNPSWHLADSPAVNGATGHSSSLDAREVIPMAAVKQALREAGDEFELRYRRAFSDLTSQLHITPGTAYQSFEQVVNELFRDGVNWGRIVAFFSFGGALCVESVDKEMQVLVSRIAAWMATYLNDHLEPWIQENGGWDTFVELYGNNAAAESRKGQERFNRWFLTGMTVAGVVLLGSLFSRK
Method in brief: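 COR-L105 cells (2,000,000/well) treated 24 h at 37 °C with compound at 100–300 nM final, singlet, alongside untreated cells. RIPA lysates normalized by BCA to 1.5 mg/mL, then BCL-xL detected by capillary immunoassay (2–40 kDa Jess) comparing treated with untreated lysates.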

IC50 (MOLT-4 cells [1]) [nM]	IC50 (MOLT-4 cells [2]) [nM]	remaining activity at 0.3 µM (endogenous BCL-xL) [%]	Structure (SMILES)
22.6	5.67		Cc1ncsc1-c1ccc(CNC(=O)C2C[C@@H](O)CN2C(=O)C(NC(=O)CCCCCC(=O)N2CCN(CC#Cc3ccc(OCCCc4sc(N5CCCc6c5nnc(Nc5nc7ccccc7s5)c6C)nc4C(=O)O)c(F)c3)CC2)C(C)(C)C)cc1 (stereo in doubt) [Example 15, 2-[3-(1,3-benzothiazol-2-ylamino)-4-methyl-6,7-dihydro-5H-pyrido[2,3-c]pyridazin-8-yl]-5-[3-[2-fluoro-4-[3-[4-[7-[[(1S)-1-[(2S,4R)-4-hydroxy-2-[[4-(4-methylthiazol-5-yl)phenyl]methylcarbamoyl]pyrrolidine-1-carbonyl]-2,2-dimethyl-propyl]amino]-7-oxo-heptanoyl]piperazin-1-yl]prop-1-ynyl]phenoxy]propyl] thiazole-4-carboxylic acid]
7	8.04		Cc1ncsc1-c1ccc([C@H](C)NC(=O)C2CC(O)CN2C(=O)C(NC(=O)CCCCCCCCCCCN2CCN(CC#Cc3ccc(OCCCc4sc(N5CCCc6c5nnc(Nc5nc7ccccc7s5)c6C)nc4C(=O)O)c(F)c3)CC2)C(C)(C)C)cc1 (stereo in doubt) [Example 31, 2-[3-(1,3-benzothiazol-2-ylamino)-4-methyl-6,7-dihydro-5H-pyrido[2,3-c]pyridazin-8-yl]-5-[3-[2-fluoro-4-[3-[4-[12-[[(1S)-1-[(2S,4R)-4-hydroxy-2-[[(1S)-1-[4-(4-methylthiazol-5-yl)phenyl]ethyl]carbamoyl]pyrrolidine-1-carbonyl]-2,2-dimethyl-propyl]amino]-12-oxo-dodecyl]piperazin-1-yl]prop-1-ynyl]phenoxy]propyl] thiazole-4-carboxylic acid]
3.41	0.636		Cc1ncsc1-c1ccc([C@H](C)NC(=O)[C@@H]2C[C@@H](O)CN2C(=O)[C@@H](NC(=O)CCCCCCCCCCCCCCCN(C)CCOC23CC4(C)CC(C)(CC(Cn5ncc(-c6ccc(N7CCCc8c7nnc(Nc7nc9ccccc9s7)c8C)nc6C(=O)O)c5C)(C4)C2)C3)C(C)(C)C)cc1 [Example 1, 6-[3-(1,3-benzothiazol-2-ylamino)-4-methyl-6,7-dihydro-5H-pyrido[2,3-c]pyridazin-8-yl]-3-[1-[[3-[2-[[16-[[(1S)-1-[(2S,4R)-4-hydroxy-2-[[(1S)-1-[4-(4-methylthiazol-5-yl)phenyl]ethyl]carbamoyl]pyrrolidine-1-carbonyl]-2,2-dimethyl-propyl]amino]-16-oxo-hexadecyl]-methyl-amino]ethoxy]-5,7-dimethyl-1-adamantyl]methyl]-5-methyl-pyrazol-4-yl]pyridine-2-carboxylic acid]
15.8	3.58		Cc1ncsc1-c1ccc([C@H](C)NC(=O)[C@@H]2C[C@@H](O)CN2C(=O)[C@@H](NC(=O)CCCCCCCCN(C)CCOC23CC4(C)CC(C)(CC(Cn5ncc(-c6ccc(N7CCCc8c7nnc(Nc7nc9ccccc9s7)c8C)nc6C(=O)O)c5C)(C4)C2)C3)C(C)(C)C)cc1 [Example 5, 6-[3-(1,3-benzothiazol-2-ylamino)-4-methyl-6,7-dihydro-5H-pyrido[2,3-c]pyridazin-8-yl]-3-[1-[[3-[2-[[9-[[(1S)-1-[(2S,4R)-4-hydroxy-2-[[(1S)-1-[4-(4-methylthiazol-5-yl)phenyl]ethyl]carbamoyl]pyrrolidine-1-carbonyl]-2,2-dimethyl-propyl]amino]-9-oxo-nonyl]-methyl-amino]ethoxy]-5,7-dimethyl-1-adamantyl]methyl]-5-methyl-pyrazol-4-yl]pyridine-2-carboxylic acid]
28.7	6.57		Cc1ncsc1-c1ccc([C@H](C)NC(=O)[C@@H]2C[C@@H](O)CN2C(=O)[C@@H](NC(=O)CCCCCCCN(C)CCOC23CC4(C)CC(C)(CC(Cn5ncc(-c6ccc(N7CCCc8c7nnc(Nc7nc9ccccc9s7)c8C)nc6C(=O)O)c5C)(C4)C2)C3)C(C)(C)C)cc1 [Example 6, 6-[3-(1,3-benzothiazol-2-ylamino)-4-methyl-6,7-dihydro-5H-pyrido[2,3-c]pyridazin-8-yl]-3-[1-[[3-[2-[[8-[[(1S)-1-[(2S,4R)-4-hydroxy-2-[[(1S)-1-[4-(4-methylthiazol-5-yl)phenyl]ethyl]carbamoyl]pyrrolidine-1-carbonyl]-2,2-dimethyl-propyl]amino]-8-oxo-octyl]-methyl-amino]ethoxy]-5,7-dimethyl-1-adamantyl]methyl]-5-methyl-pyrazol-4-yl]pyridine-2-carboxylic acid]
		64.8	Cc1ncsc1-c1ccc(CNC(=O)[C@@H]2C[C@@H](O)CN2C(=O)[C@@H](NC(=O)CCCCCCC(=O)N2CCN(CC#Cc3ccc(OCCCc4sc(N5CCCc6c5nnc(Nc5nc7ccccc7s5)c6C)nc4C(=O)O)c(F)c3)CC2)C(C)(C)C)cc1 [Example 33, 2-(3-(benzo[d]thiazol-2-ylamino)-4-methyl-6,7-dihydropyrido [2,3-c]pyridazin-8(5H)-yl)-5-(3-(2-fluoro-4-(3-(4-(8-(((S)-1-((2S,4R)-4-hydroxy-2-((4-(4-methylthiazol-5-yl)benzyl)carbamoyl)pyrrolidin-1-yl)-3,3-dimethyl-1-oxobutan-2-yl)amino)-8-oxooctanoyl)piperazin-1-yl)prop-1-yn-1-yl)phenoxy)propyl) thiazole-4-carboxylic acid]
		> 90	Cc1ncsc1-c1ccc([C@H](C)NC(=O)[C@@H]2C[C@@H](O)CN2C(=O)[C@@H](NC(=O)CCCC(=O)N2CCN(CC#Cc3ccc(OCCCc4sc(N5CCCc6c5nnc(Nc5nc7ccccc7s5)c6C)nc4C(=O)O)c(F)c3)CC2)C(C)(C)C)cc1 [Example 35, 2-(3-(benzo[d]thiazol-2-ylamino)-4-methyl-6,7-dihydropyrido [2,3-c]pyridazin-8(5H)-yl)-5-(3-(2-fluoro-4-(3-(4-(5-(((S)-1-((2S,4R)-4-hydroxy-2-(((S)-1-(4-(4-methylthiazol-5-yl)phenyl)ethyl)carbamoyl)pyrrolidin-1-yl)-3,3-dimethyl-1-oxobutan-2-yl)amino)-5-oxopentanoyl)piperazin-1-yl)prop-1-yn-1-yl)phenoxy)propyl)thiazole-4-carboxylic acid]
		33.3	Cc1ncsc1-c1ccc([C@H](C)NC(=O)[C@@H]2C[C@@H](O)CN2C(=O)[C@@H](NC(=O)CC23CC4CC(C2)CC(CC(=O)N2CCN(CC#Cc5ccc(OCCCc6sc(N7CCCc8c7nnc(Nc7nc9ccccc9s7)c8C)nc6C(=O)O)c(F)c5)CC2)(C4)C3)C(C)(C)C)cc1 [Example 42, 2-(3-(benzo[d]thiazol-2-ylamino)-4-methyl-6,7-dihydropyrido [2,3-c]pyridazin-8(5H)-yl)-5-(3-(2-fluoro-4-(3-(4-(2-((3S,5R)-3-(2-(((S)-1-((2S,4R)-4-hydroxy-2-(((S)-1-(4-(4-methylthiazol-5-yl)phenyl)ethyl)carbamoyl)pyrrolidin-1-yl)-3,3-dimethyl-1-oxobutan-2-yl)amino)-2-oxoethyl)adamantan-1-yl)acetyl)piperazin-1-yl)prop-1-yn-1-yl)phenoxy)propyl)thiazole-4-carboxylic acid]
		22.6	Cc1ncsc1-c1ccc([C@H](C)NC(=O)[C@@H]2C[C@@H](O)CN2C(=O)[C@@H](NC(=O)CCCCCCCCCCC(=O)N2CCN(CC#Cc3ccc(OCCCc4sc(N5CCCc6c5nnc(Nc5nc7ccccc7s5)c6C)nc4C(=O)O)c(F)c3)CC2)C(C)(C)C)cc1 [Example 46, 2-(3-(benzo[d]thiazol-2-ylamino)-4-methyl-6,7-dihydropyrido [2,3-c]pyridazin-8(5H)-yl)-5-(3-(2-fluoro-4-(3-(4-(12-(((S)-1-((2S,4R)-4-hydroxy-2-(((S)-1-(4-(4-methylthiazol-5-yl)phenyl)ethyl)carbamoyl)pyrrolidin-1-yl)-3,3-dimethyl-1-oxobutan-2-yl)amino)-12-oxododecanoyl)piperazin-1-yl)prop-1-yn-1-yl)phenoxy)propyl)thiazole-4-carboxylic acid]
		22.3	Cc1ncsc1-c1ccc([C@H](C)NC(=O)[C@@H]2C[C@@H](O)CN2C(=O)[C@@H](NC(=O)CCCCCCCCCCC(=O)N2CCN(CCOC34CC5(C)CC(C)(CC(Cn6ncc(-c7ccc(N8CCCc9c8nnc(Nc8nc%10ccccc%10s8)c9C)nc7C(=O)O)c6C)(C5)C3)C4)CC2)C(C)(C)C)cc1 [Example 47, 6-(3-(benzo[d]thiazol-2-ylamino)-4-methyl-6,7-dihydropyrido [2,3-c]pyridazin-8(5H)-yl)-3-(1-(((1r,3s,5R,7S)-3-(2-(4-(12-(((S)-1-((2S,4R)-4-hydroxy-2-(((S)-1-(4-(4-methylthiazol-5-yl)phenyl)ethyl)carbamoyl)pyrrolidin-1-yl)-3,3-dimethyl-1-oxobutan-2-yl)amino)-12-oxododecanoyl)piperazin-1-yl)ethoxy)-5,7-dimethyladamantan-1-yl)methyl)-5-methyl-1H-pyrazol-4-yl)picolinic acid]
